Source: patent publication US10105357B2, “Indication of antibiotic drugs for preparation of cancer inhibition pharmaceutical composition” (LAUNX BIOMEDICAL CO., LTD., priority 2014, dated 2018)
Where two headings read alike, the source gives them in different places.

How the values were obtained:
[1] = system: TSGH-8301 (Urinary Bladder Carcinoma); assay: Cell viability analysis, bladder cancer TSGH-8301; type: cell-based, human; settings: Homo sapiens
[2] = system: BCC (basal cell carcinoma); assay: Cell viability analysis, skin cancer BCC; type: cell-based, human; settings: Homo sapiens, 72 h, read-out: The results of antibiotic drug inhibiting cancer cell lines (cell viability analysis), BCC
[3] = system: HCT116 (p53+) (Colorectal Carcinoma)
[4] = system: HL-60 (Acute Promyelocytic Leukemia); assay: Cell viability analysis, leukemia HL-60; type: cell-based, human; settings: Homo sapiens
NIH: OVCAR-3 = assay: Cell viability analysis, ovarian cancer NIH: OVCAR-3; type: cell-based, human; settings: Homo sapiens, OVCAR-3, 72 h, read-out: The results of antibiotic drug inhibiting cancer cell lines (cell viability analysis), NIH-OVCAR-3
U-2OS = assay: Cell viability analysis, osteosarcoma U-2OS; type: cell-based, human; settings: Homo sapiens, U2OS, 72 h, read-out: The results of antibiotic drug inhibiting cancer cell lines (cell viability analysis), U2OS
[5] = system: C-33A (Cervical carcinoma); assay: Cell viability analysis, cervical cancer C-33A; type: cell-based, human; settings: Homo sapiens, C-33-A, 72 h, read-out: The results of antibiotic drug inhibiting cancer cell lines (cell viability analysis), C-33A
[6] = system: 786-O (Renal adenocarcinoma); assay: Cell viability analysis, renal cancer 786-O; type: cell-based, human; settings: Homo sapiens, 786-0, 72 h, read-out: The results of antibiotic drug inhibiting cancer cell lines (cell viability analysis), 786-O
[7] = system: MKN-45 (Gastric Adenocarcinoma); assay: Cell viability analysis, gastric cancer MKN-45; type: cell-based, human; settings: Homo sapiens
[8] = system: SAS (Tongue squamous cell carcinoma); assay: Cell viability analysis, tongue cancer SAS; type: cell-based, human; settings: Homo sapiens, 72 h, read-out: The results of antibiotic drug inhibiting cancer cell lines (cell viability analysis), SAS
[9] = system: HeLa (Cervix Adenocarcinoma); assay: Cell viability analysis, cervical cancer HeLa; type: cell-based, human; settings: Homo sapiens, HeLa
TOV-21G = assay: Cell viability analysis, ovarian cancer TOV-21G; type: cell-based, human; settings: Homo sapiens, TOV21G, 72 h, read-out: The results of antibiotic drug inhibiting cancer cell lines (cell viability analysis), TOV-21G
[10] = system: A549 (Lung Adenocarcinoma); assay: Cell viability analysis, lung cancer A549; type: cell-based, human; settings: Homo sapiens
[11] = system: LoVo (Colorectal Adenocarcinoma); assay: Cell viability analysis, colon cancer LoVo; type: cell-based, human; settings: Homo sapiens, LoVo
BxPC-3 = assay: Cell viability analysis, pancreatic cancer BxPC-3; type: cell-based, human; settings: Homo sapiens, BXPC-3, 72 h, read-out: The results of antibiotic drug inhibiting cancer cell lines (cell viability analysis), BxPC-3
cancer cell lines = assay: Cell viability analysis (WST-1) on cancer cell lines; type: cell-based, human; settings: drug 10 μM, 72 hours, WST-1; Table 3
[12] = system: Hep3B (hepatocellular carcinoma); assay: Cell viability analysis, hepatic cancer Hep3B; type: cell-based, human; settings: Homo sapiens, Hep3B, 72 h, read-out: The results of antibiotic drug inhibiting cancer cell lines (cell viability analysis), Hep3B
[13] = system: HepG2 (Hepatocellular Carcinoma); assay: Cell viability analysis, hepatic cancer HepG2; type: cell-based, human; settings: Homo sapiens
[14] = system: PC3 (p53−) (Prostate Adenocarcinoma); assay: Cell viability analysis, prostate cancer PC3; type: cell-based, human; settings: Homo sapiens
[15] = system: A375 (Amelanotic Melanoma); assay: Cell viability analysis, skin cancer A375; type: cell-based, human; settings: Homo sapiens
[16] = system: MCF7 (Mammary Gland, Adenocarcinoma); assay: Cell viability analysis, breast cancer MCF7; type: cell-based, human; settings: Homo sapiens
[17] = system: AGS (Gastric Adenocarcinoma); assay: Cell viability analysis, gastric cancer AGS; type: cell-based, human; settings: Homo sapiens
T24 = assay: Cell viability analysis, bladder cancer T24; type: cell-based, human; settings: Homo sapiens, T-24, 72 h, read-out: The results of antibiotic drug inhibiting cancer cell lines (cell viability analysis), T24
AsPC-1 = assay: Cell viability analysis, pancreatic cancer AsPC-1; type: cell-based, human; settings: Homo sapiens, ASPC1, 72 h, read-out: The results of antibiotic drug inhibiting cancer cell lines (cell viability analysis), AsPC-1
[18] = system: HI650 (Lung Adenocarcinoma); assay: Cell viability analysis, lung cancer HI650; type: cell-based, human; settings: Homo sapiens
[19] = system: MDA-MB-231 (Mammary Gland, Adenocarcinoma); assay: Cell viability analysis, breast cancer MDA-MB-231; type: cell-based, human; settings: Homo sapiens, MDA-MB-231, 72 h, read-out: The results of antibiotic drug inhibiting cancer cell lines (cell viability analysis), MDA-MB231
[20] = 72 h, TSGH-8301, repeated experiment, read-out: The results of antibiotic drug inhibiting cancer cell lines (cell viability analysis), TSGH-8301

SMILES: CCC[S+]([O-])c1ccc2[nH]c(NC(=O)OC)nc2c1 (stereo not shown) [Albendazole Oxide (Ricobendazole), Albendazole Oxide]
- viability at 10 µM [1, 20]: 63.3%
- viability at 10 µM ([1]; drug 10 μM, 72 hours, WST-1, OD450 nm, read-out: cell viability (survival rate), TSGH): 77.7%
- viability at 10 µM [2]: 57.1%
- viability [3]: 91.3%
- viability at 10 µM ([4]; HL-60, drug 10 μM, 72 hours, WST-1, OD450 nm, read-out: cell viability (survival rate), HL-60): 103%
- viability at 10 µM (NIH: OVCAR-3): 72.1%
- viability at 10 µM (U-2OS): 84.8%
- viability at 10 µM [5]: 102%
- viability at 10 µM [6]: 86.1%
- viability at 10 µM ([7]; 72 h, MKN-45, repeated experiment, read-out: The results of antibiotic drug inhibiting cancer cell lines (cell viability analysis), MKN-45): 74.3%
- viability at 10 µM ([7]; MKN-45, drug 10 μM, 72 hours, WST-1, OD450 nm, read-out: cell viability (survival rate), MKN-45): 60.8%
- viability at 10 µM [8]: 92.4%
- viability at 10 µM ([9]; 72 h, repeated experiment, read-out: The results of antibiotic drug inhibiting cancer cell lines (cell viability analysis), HeLa): 49.4%
- viability at 10 µM ([9]; drug 10 μM, 72 hours, WST-1, OD450 nm, read-out: cell viability (survival rate), HeLa): 56%
- viability at 10 µM (TOV-21G): 76.3%
- viability at 10 µM ([10]; 72 h, A549, repeated experiment, read-out: The results of antibiotic drug inhibiting cancer cell lines (cell viability analysis), A549): 95.5%
- viability at 10 µM ([10]; A549, drug 10 μM, 72 hours, WST-1, OD450 nm, read-out: cell viability (survival rate), A549): 155%
- viability at 10 µM ([11]; 72 h, repeated experiment, read-out: The results of antibiotic drug inhibiting cancer cell lines (cell viability analysis), LoVo): 88.2%
- viability at 10 µM ([11]; drug 10 μM, 72 hours, WST-1, OD450 nm, read-out: cell viability (survival rate), LoVo): 68.9%
- viability at 10 µM (BxPC-3): 50.2%
- inhibition effect on different cancer cell lines (cancer cell lines): significant inhibition effect
- viability at 10 µM [12]: 97.9%
- viability at 10 µM ([13]; 72 h, HepG2, repeated experiment, read-out: The results of antibiotic drug inhibiting cancer cell lines (cell viability analysis), HepG2): 92.9%
- viability at 10 µM ([13]; HepG2, drug 10 μM, 72 hours, WST-1, OD450 nm, read-out: cell viability (survival rate), HepG2): 104%
- viability at 10 µM ([14]; 72 h, PC-3, repeated experiment, read-out: The results of antibiotic drug inhibiting cancer cell lines (cell viability analysis), PC-3): 78.7%
- viability at 10 µM ([14]; drug 10 μM, 72 hours, WST-1, OD450 nm, read-out: cell viability (survival rate), PC3): 60.5%
- viability at 10 µM ([15]; A-375, 72 h, A375, repeated experiment, read-out: The results of antibiotic drug inhibiting cancer cell lines (cell viability analysis), A375): 66.5%
- viability at 10 µM ([15]; A-375, drug 10 μM, 72 hours, WST-1, OD450 nm, read-out: cell viability (survival rate), A375): 92.9%
- viability at 10 µM ([16]; MCF7, 72 h, MCF-7, repeated experiment, read-out: The results of antibiotic drug inhibiting cancer cell lines (cell viability analysis), MCF-7): 68.3%
- viability at 10 µM ([16]; MCF7, drug 10 μM, 72 hours, WST-1, OD450 nm, read-out: cell viability (survival rate), MCF7): 62.3%
- viability at 10 µM ([17]; 72 h, AGS, repeated experiment, read-out: The results of antibiotic drug inhibiting cancer cell lines (cell viability analysis), AGS): 80%
- viability at 10 µM ([17]; drug 10 μM, 72 hours, WST-1, OD450 nm, read-out: cell viability (survival rate), AGS): 34%
- viability at 10 µM (T24): 89.8%
- viability at 10 µM (AsPC-1): 67.6%
- viability at 10 µM ([18]; NCI-H1650, 72 h, H1650, repeated experiment, read-out: The results of antibiotic drug inhibiting cancer cell lines (cell viability analysis), H1650): 64.6%
- viability at 10 µM ([18]; NCI-H1650, drug 10 μM, 72 hours, WST-1, OD450 nm, read-out: cell viability (survival rate), H1650): 59.5%
- viability at 10 µM [19]: 81.1%

SMILES: CN(C)c1cc(NC(=O)CNC(C)(C)C)c(O)c2c1C[C@H]1C[C@H]3[C@H](N(C)C)C(O)=C(C(N)=O)C(=O)[C@@]3(O)C(O)=C1C2=O [Tigecycline]
- viability at 10 µM [1, 20]: 113%
- viability at 10 µM ([1]; 72 h, read-out: cell viability (survival rate), TSGH, drug 10 μM, 72 hours, WST-1, OD450 nm): 98.5%
- viability at 10 µM [2]: 79.9%
- viability [3]: 89.7%
- viability at 10 µM ([4]; HL-60, 72 h, read-out: cell viability (survival rate), HL-60, drug 10 μM, 72 hours, WST-1, OD450 nm): 97.6%
- viability at 10 µM (NIH: OVCAR-3): 91.1%
- viability at 10 µM (U-2OS): 84%
- viability at 10 µM [5]: 100%
- viability at 10 µM [6]: 100%
- viability at 10 µM ([7]; MKN-45, 72 h, read-out: The results of antibiotic drug inhibiting cancer cell lines (cell viability analysis), MKN-45, MKN-45, repeated experiment): 114%
- viability at 10 µM ([7]; MKN-45, 72 h, read-out: cell viability (survival rate), MKN-45, drug 10 μM, 72 hours, WST-1, OD450 nm): 89.2%
- viability at 10 µM [8]: 66.2%
- viability at 10 µM ([9]; 72 h, read-out: The results of antibiotic drug inhibiting cancer cell lines (cell viability analysis), HeLa, repeated experiment): 102%
- viability at 10 µM (TOV-21G): 67.1%
- viability at 10 µM ([10]; A549, 72 h, read-out: The results of antibiotic drug inhibiting cancer cell lines (cell viability analysis), A549, A549, repeated experiment): 91.5%
- viability at 10 µM ([10]; A549, 72 h, read-out: cell viability (survival rate), A549, drug 10 μM, 72 hours, WST-1, OD450 nm): 55.9%
- viability at 10 µM ([11]; 72 h, read-out: The results of antibiotic drug inhibiting cancer cell lines (cell viability analysis), LoVo, repeated experiment): 96%
- viability at 10 µM ([11]; 72 h, read-out: cell viability (survival rate), LoVo, drug 10 μM, 72 hours, WST-1, OD450 nm): 82.4%
- viability at 10 µM (BxPC-3): 75.6%
- inhibition effect on different cancer cell lines (cancer cell lines): significant inhibition effect
- viability at 10 µM [12]: 106%
- viability at 10 µM ([13]; HepG2, 72 h, read-out: The results of antibiotic drug inhibiting cancer cell lines (cell viability analysis), HepG2, HepG2, repeated experiment): 97.2%
- viability at 10 µM ([13]; HepG2, 72 h, read-out: cell viability (survival rate), HepG2, drug 10 μM, 72 hours, WST-1, OD450 nm): 102%
- viability at 10 µM ([14]; 72 h, read-out: The results of antibiotic drug inhibiting cancer cell lines (cell viability analysis), PC-3, PC-3, repeated experiment): 112%
- viability at 10 µM ([14]; 72 h, read-out: cell viability (survival rate), PC3, drug 10 μM, 72 hours, WST-1, OD450 nm): 83%
- viability at 10 µM ([15]; A-375, 72 h, read-out: The results of antibiotic drug inhibiting cancer cell lines (cell viability analysis), A375, A375, repeated experiment): 83.2%
- viability at 10 µM ([15]; A-375, 72 h, read-out: cell viability (survival rate), A375, drug 10 μM, 72 hours, WST-1, OD450 nm): 52.2%
- viability at 10 µM ([16]; MCF7, 72 h, read-out: The results of antibiotic drug inhibiting cancer cell lines (cell viability analysis), MCF-7, MCF-7, repeated experiment): 79.1%
- viability at 10 µM ([16]; MCF7, 72 h, read-out: cell viability (survival rate), MCF7, drug 10 μM, 72 hours, WST-1, OD450 nm): 71.1%
- viability at 10 µM ([17]; 72 h, read-out: The results of antibiotic drug inhibiting cancer cell lines (cell viability analysis), AGS, repeated experiment): 90.6%
- viability at 10 µM ([17]; 72 h, read-out: cell viability (survival rate), AGS, drug 10 μM, 72 hours, WST-1, OD450 nm): 49.4%
- viability at 10 µM (T24): 109%
- viability at 10 µM (AsPC-1): 86.5%
- viability at 10 µM ([18]; NCI-H1650, 72 h, read-out: The results of antibiotic drug inhibiting cancer cell lines (cell viability analysis), H1650, H1650, repeated experiment): 66.9%
- viability at 10 µM ([18]; NCI-H1650, 72 h, read-out: cell viability (survival rate), H1650, drug 10 μM, 72 hours, WST-1, OD450 nm): 53.1%
- viability at 10 µM [19]: 93.4%
